# System: 388556-164-R-J1-PDC complex spheroid viability
# Test: Anticancer human tumor 388556-164-R-J1-PDC patient-derived colon adenocarcinoma cell line growth inhibition [RAS]
# Conditions: for IC50: curve of first compound; for viability, T/C: stronger effect = lower value
# Outline: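 Agents were tested in combination matrices in half-log decrements from a top concentration at or near clinical Cmax (10 microM if undetermined). Targets were multi-cell spheroids of tumour lines plus HUVEC and MSC stromal cells.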
# 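Also: spheroids exposed to compound for 7 days before readout.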
# 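For viability, T/C in this document: 100% = DMSO vehicle control luminescence.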
compound,measurement,setting,value
CC(C)n1nc(-c2ccc3oc(N)nc3c2)c2c(N)ncnc21 + C=CC(=O)N1CCN(c2nc(OCC3CCCN3C)nc3c(F)c(-c4nc(N)cc(C)c4C(F)(F)F)c(Cl)cc23)C(C)C1,IC50,second compound 0.00316 µM,69 nM
same,IC50,second compound 0.01 µM,74.3 nM
same,IC50,second compound 0.0316 µM,64.6 nM
same,IC50,second compound 0.1 µM,77.2 nM
same,IC50,second compound 0.316 µM,75 nM
same,IC50,second compound 1 µM,51.4 nM
same,"viability, T/C","second compound 0.00316 µM, first compound 0.000316 µM",102%
same,"viability, T/C","second compound 0.00316 µM, first compound 0.001 µM",98.2%
same,"viability, T/C","second compound 0.00316 µM, first compound 0.00316 µM",91.9%
same,"viability, T/C","second compound 0.00316 µM, first compound 0.01 µM",74.8%
same,"viability, T/C","second compound 0.00316 µM, first compound 0.0316 µM",66.5%
same,"viability, T/C","second compound 0.00316 µM, first compound 0.1 µM",42.7%
same,"viability, T/C","second compound 0.01 µM, first compound 0.000316 µM",100%
same,"viability, T/C","second compound 0.01 µM, first compound 0.001 µM",95.3%
same,"viability, T/C","second compound 0.01 µM, first compound 0.00316 µM",95.3%
same,"viability, T/C","second compound 0.01 µM, first compound 0.01 µM",76.7%
same,"viability, T/C","second compound 0.01 µM, first compound 0.0316 µM",56%
same,"viability, T/C","second compound 0.01 µM, first compound 0.1 µM",47.8%
same,"viability, T/C","second compound 0.0316 µM, first compound 0.000316 µM",104%
same,"viability, T/C","second compound 0.0316 µM, first compound 0.001 µM",95.6%
same,"viability, T/C","second compound 0.0316 µM, first compound 0.00316 µM",80.1%
same,"viability, T/C","second compound 0.0316 µM, first compound 0.01 µM",76%
same,"viability, T/C","second compound 0.0316 µM, first compound 0.0316 µM",59.6%
same,"viability, T/C","second compound 0.0316 µM, first compound 0.1 µM",43.5%
same,"viability, T/C","second compound 0.1 µM, first compound 0.000316 µM",96.2%
same,"viability, T/C","second compound 0.1 µM, first compound 0.001 µM",108%
same,"viability, T/C","second compound 0.1 µM, first compound 0.00316 µM",83.2%
same,"viability, T/C","second compound 0.1 µM, first compound 0.01 µM",84.5%
same,"viability, T/C","second compound 0.1 µM, first compound 0.0316 µM",63%
same,"viability, T/C","second compound 0.1 µM, first compound 0.1 µM",46.1%
same,"viability, T/C","second compound 0.316 µM, first compound 0.000316 µM",99.7%
same,"viability, T/C","second compound 0.316 µM, first compound 0.001 µM",98%
same,"viability, T/C","second compound 0.316 µM, first compound 0.00316 µM",92.2%
same,"viability, T/C","second compound 0.316 µM, first compound 0.01 µM",79.6%
same,"viability, T/C","second compound 0.316 µM, first compound 0.0316 µM",59.4%
same,"viability, T/C","second compound 0.316 µM, first compound 0.1 µM",46.9%
same,"viability, T/C","second compound 1 µM, first compound 0.000316 µM",90.6%
same,"viability, T/C","second compound 1 µM, first compound 0.001 µM",99.9%
same,"viability, T/C","second compound 1 µM, first compound 0.00316 µM",95.2%
same,"viability, T/C","second compound 1 µM, first compound 0.01 µM",81.1%
same,"viability, T/C","second compound 1 µM, first compound 0.0316 µM",55.4%
same,"viability, T/C","second compound 1 µM, first compound 0.1 µM",43.1%
NC1c2ccccc2OC12CCN(c1cnc3c(N4CCCc5ncccc54)n[nH]c3n1)CC2 (centres undefined) + CCn1c(-c2cc(N3CCN(C)CC3)cnc2C(C)OC)c2c3cc(ccc31)-c1csc(n1)CC(NC(=O)C1CC1C)C(=O)N1CCCC(N1)C(=O)OCC(C)(C)C2,IC50,second compound 0.000949 µM,106 nM
same,IC50,second compound 0.003 µM,116 nM
same,IC50,second compound 0.00949 µM,47.6 nM
same,IC50,second compound 0.03 µM,< 31.6 nM
same,IC50,second compound 0.0949 µM,< 31.6 nM
same,IC50,second compound 0.3 µM,< 31.6 nM
same,"viability, T/C","second compound 0.000949 µM, first compound 0.0316 µM",64.5%
same,"viability, T/C","second compound 0.000949 µM, first compound 0.1 µM",50.1%
same,"viability, T/C","second compound 0.000949 µM, first compound 0.316 µM",39%
same,"viability, T/C","second compound 0.000949 µM, first compound 1 µM",39.8%
same,"viability, T/C","second compound 0.000949 µM, first compound 3.16 µM",30.3%
same,"viability, T/C","second compound 0.000949 µM, first compound 10 µM",29.1%
same,"viability, T/C","second compound 0.003 µM, first compound 0.0316 µM",63%
same,"viability, T/C","second compound 0.003 µM, first compound 0.1 µM",52%
same,"viability, T/C","second compound 0.003 µM, first compound 0.316 µM",39.2%
same,"viability, T/C","second compound 0.003 µM, first compound 1 µM",30.3%
same,"viability, T/C","second compound 0.003 µM, first compound 3.16 µM",27.7%
same,"viability, T/C","second compound 0.003 µM, first compound 10 µM",22.6%
same,"viability, T/C","second compound 0.00949 µM, first compound 0.0316 µM",54.3%
same,"viability, T/C","second compound 0.00949 µM, first compound 0.1 µM",43.1%
same,"viability, T/C","second compound 0.00949 µM, first compound 0.316 µM",30.6%
same,"viability, T/C","second compound 0.00949 µM, first compound 1 µM",24.3%
same,"viability, T/C","second compound 0.00949 µM, first compound 3.16 µM",23.8%
same,"viability, T/C","second compound 0.00949 µM, first compound 10 µM",21.9%
same,"viability, T/C","second compound 0.03 µM, first compound 0.0316 µM",35.7%
same,"viability, T/C","second compound 0.03 µM, first compound 0.1 µM",29.9%
same,"viability, T/C","second compound 0.03 µM, first compound 0.316 µM",26.3%
same,"viability, T/C","second compound 0.03 µM, first compound 1 µM",22.5%
same,"viability, T/C","second compound 0.03 µM, first compound 3.16 µM",20.5%
same,"viability, T/C","second compound 0.03 µM, first compound 10 µM",18.6%
same,"viability, T/C","second compound 0.0949 µM, first compound 0.0316 µM",32.3%
same,"viability, T/C","second compound 0.0949 µM, first compound 0.1 µM",27.8%
same,"viability, T/C","second compound 0.0949 µM, first compound 0.316 µM",22.5%
same,"viability, T/C","second compound 0.0949 µM, first compound 1 µM",20.8%
same,"viability, T/C","second compound 0.0949 µM, first compound 3.16 µM",22.4%
same,"viability, T/C","second compound 0.0949 µM, first compound 10 µM",19.1%
same,"viability, T/C","second compound 0.3 µM, first compound 0.0316 µM",27.5%
same,"viability, T/C","second compound 0.3 µM, first compound 0.1 µM",23.8%
same,"viability, T/C","second compound 0.3 µM, first compound 0.316 µM",23.3%
same,"viability, T/C","second compound 0.3 µM, first compound 1 µM",21.3%
same,"viability, T/C","second compound 0.3 µM, first compound 3.16 µM",22.2%
same,"viability, T/C","second compound 0.3 µM, first compound 10 µM",21.9%
